The results in this text go back to ChEMBL document CHEMBL5442175, “EUbOPEN Chemogenomics Library - PDSP Secondary Binding” (2024).

The target in experiment [1] is T1, Alpha-1D adrenergic receptor (Homo sapiens, UniProt P25100).
T1 sequence (P25100 whole entry): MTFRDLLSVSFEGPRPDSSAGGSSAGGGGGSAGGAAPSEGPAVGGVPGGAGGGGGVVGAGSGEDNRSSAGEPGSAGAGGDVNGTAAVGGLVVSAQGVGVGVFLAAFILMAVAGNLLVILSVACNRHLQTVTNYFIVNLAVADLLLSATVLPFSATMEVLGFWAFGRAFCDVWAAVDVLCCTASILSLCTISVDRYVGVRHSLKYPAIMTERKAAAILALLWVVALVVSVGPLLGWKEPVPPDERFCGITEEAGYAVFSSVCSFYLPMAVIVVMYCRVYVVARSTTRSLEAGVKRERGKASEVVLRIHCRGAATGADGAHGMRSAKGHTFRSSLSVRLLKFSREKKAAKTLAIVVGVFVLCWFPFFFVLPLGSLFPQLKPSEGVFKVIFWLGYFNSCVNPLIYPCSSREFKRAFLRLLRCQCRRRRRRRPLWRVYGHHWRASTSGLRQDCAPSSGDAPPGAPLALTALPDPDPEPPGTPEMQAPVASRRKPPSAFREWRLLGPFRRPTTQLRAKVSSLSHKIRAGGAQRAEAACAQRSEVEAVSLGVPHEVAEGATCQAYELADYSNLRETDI
Kind of experiment: PDSP Secondary Binding target: ADRA1D - Compounds are tested at 10 uM concentration, plate are incubated at room temperature in the dark for 90 minutes. Reaction are stopped by vacuum filtration onto 0.3% polyethyleneimine soaked filter mats using Filtermate harvester. Scintillation cocktail is then melted onto microwave-dried filters on a hot plate and the radio activity is counted in Microbia counter.

The target in experiment [2] is Sigma intracellular receptor 2 (Homo sapiens, UniProt Q5BJF2). Kind of experiment: PDSP Secondary Binding target: TMEM97 - Compounds are tested at 10 uM concentration, plate are incubated at room temperature in the dark for 90 minutes. Reaction are stopped by vacuum filtration onto 0.3% polyethyleneimine soaked filter mats using Filtermate harvester. Scintillation cocktail is then melted onto microwave-dried filters on a hot plate and the radio activity is counted in Microbia counter.
Sequence of Sigma intracellular receptor 2 (Q5BJF2 whole entry): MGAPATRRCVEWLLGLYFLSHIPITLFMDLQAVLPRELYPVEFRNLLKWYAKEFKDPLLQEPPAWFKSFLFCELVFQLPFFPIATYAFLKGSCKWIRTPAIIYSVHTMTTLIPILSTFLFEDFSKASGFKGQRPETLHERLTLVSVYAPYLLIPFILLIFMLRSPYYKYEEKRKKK

Experiment [3] deals with 5-hydroxytryptamine receptor 6 (Homo sapiens, UniProt P50406). Kind of experiment: PDSP Secondary Binding target: HTR6 - Compounds are tested at 10 uM concentration, plate are incubated at room temperature in the dark for 90 minutes. Reaction are stopped by vacuum filtration onto 0.3% polyethyleneimine soaked filter mats using Filtermate harvester. Scintillation cocktail is then melted onto microwave-dried filters on a hot plate and the radio activity is counted in Microbia counter.
Sequence of 5-hydroxytryptamine receptor 6 (P50406 whole entry): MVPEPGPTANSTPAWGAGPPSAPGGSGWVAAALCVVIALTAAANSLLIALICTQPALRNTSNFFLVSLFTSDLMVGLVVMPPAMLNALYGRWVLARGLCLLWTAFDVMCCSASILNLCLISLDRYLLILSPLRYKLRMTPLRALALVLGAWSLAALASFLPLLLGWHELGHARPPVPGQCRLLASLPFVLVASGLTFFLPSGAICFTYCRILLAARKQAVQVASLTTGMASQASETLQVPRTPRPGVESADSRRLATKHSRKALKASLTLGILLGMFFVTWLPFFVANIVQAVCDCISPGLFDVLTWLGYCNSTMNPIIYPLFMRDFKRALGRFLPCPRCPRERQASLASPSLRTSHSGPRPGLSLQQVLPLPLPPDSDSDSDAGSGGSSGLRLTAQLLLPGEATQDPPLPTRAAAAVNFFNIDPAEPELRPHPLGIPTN

A further experiment deals with Histamine H1 receptor (Homo sapiens, UniProt P35367). The experiment in a line: PDSP Secondary Binding target: HRH1 - Compounds are tested at 10 uM concentration, plate are incubated at room temperature in the dark for 90 minutes. Reaction are stopped by vacuum filtration onto 0.3% polyethyleneimine soaked filter mats using Filtermate harvester. Scintillation cocktail is then melted onto microwave-dried filters on a hot plate and the radio activity is counted in Microbia counter.
Sequence of Histamine H1 receptor (P35367 whole entry): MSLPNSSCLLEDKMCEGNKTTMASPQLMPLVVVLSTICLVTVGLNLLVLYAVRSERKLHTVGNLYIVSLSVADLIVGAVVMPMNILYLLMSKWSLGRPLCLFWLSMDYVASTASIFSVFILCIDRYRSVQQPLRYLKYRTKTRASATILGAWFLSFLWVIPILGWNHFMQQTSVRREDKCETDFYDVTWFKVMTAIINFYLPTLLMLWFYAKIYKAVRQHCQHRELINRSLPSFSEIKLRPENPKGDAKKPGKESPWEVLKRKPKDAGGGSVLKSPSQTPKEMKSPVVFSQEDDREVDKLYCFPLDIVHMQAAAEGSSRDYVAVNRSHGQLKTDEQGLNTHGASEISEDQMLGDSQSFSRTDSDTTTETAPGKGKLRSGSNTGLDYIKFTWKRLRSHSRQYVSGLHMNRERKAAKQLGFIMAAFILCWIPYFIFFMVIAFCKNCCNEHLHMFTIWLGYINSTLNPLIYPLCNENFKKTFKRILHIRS

Another experiment has as its target D(3) dopamine receptor (Homo sapiens, UniProt P35462). Kind of experiment: PDSP Secondary Binding target: DRD3 - Compounds are tested at 10 uM concentration, plate are incubated at room temperature in the dark for 90 minutes. Reaction are stopped by vacuum filtration onto 0.3% polyethyleneimine soaked filter mats using Filtermate harvester. Scintillation cocktail is then melted onto microwave-dried filters on a hot plate and the radio activity is counted in Microbia counter.

The target of experiment [4] is T2, Alpha-1A adrenergic receptor (Homo sapiens, UniProt P35348).
T2 sequence (P35348 whole entry): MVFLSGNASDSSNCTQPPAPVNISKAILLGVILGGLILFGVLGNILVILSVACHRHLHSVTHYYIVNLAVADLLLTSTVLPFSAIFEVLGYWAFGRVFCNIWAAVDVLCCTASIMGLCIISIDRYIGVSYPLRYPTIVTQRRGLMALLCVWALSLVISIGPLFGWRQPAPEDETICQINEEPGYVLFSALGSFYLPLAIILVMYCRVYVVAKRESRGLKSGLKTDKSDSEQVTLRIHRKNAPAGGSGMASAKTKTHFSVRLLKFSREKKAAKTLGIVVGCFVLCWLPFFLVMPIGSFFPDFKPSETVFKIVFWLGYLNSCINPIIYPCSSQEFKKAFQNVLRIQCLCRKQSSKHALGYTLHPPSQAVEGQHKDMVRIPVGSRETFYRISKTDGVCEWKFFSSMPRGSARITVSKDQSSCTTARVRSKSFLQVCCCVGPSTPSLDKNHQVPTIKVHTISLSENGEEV
The experiment in a line: PDSP Secondary Binding target: ADRA1A - Compounds are tested at 10 uM concentration, plate are incubated at room temperature in the dark for 90 minutes. Reaction are stopped by vacuum filtration onto 0.3% polyethyleneimine soaked filter mats using Filtermate harvester. Scintillation cocktail is then melted onto microwave-dried filters on a hot plate and the radio activity is counted in Microbia counter.

Experiment [5] concerns the target 5-hydroxytryptamine receptor 1B (Homo sapiens, UniProt P28222). Kind of experiment: PDSP Secondary Binding target: HTR1B - Compounds are tested at 10 uM concentration, plate are incubated at room temperature in the dark for 90 minutes. Reaction are stopped by vacuum filtration onto 0.3% polyethyleneimine soaked filter mats using Filtermate harvester. Scintillation cocktail is then melted onto microwave-dried filters on a hot plate and the radio activity is counted in Microbia counter.

The next experiment has as its target D(2) dopamine receptor (Homo sapiens, UniProt P14416). The experiment in a line: PDSP Secondary Binding target: DRD2 - Compounds are tested at 10 uM concentration, plate are incubated at room temperature in the dark for 90 minutes. Reaction are stopped by vacuum filtration onto 0.3% polyethyleneimine soaked filter mats using Filtermate harvester. Scintillation cocktail is then melted onto microwave-dried filters on a hot plate and the radio activity is counted in Microbia counter.

Experiment [6] deals with Sigma non-opioid intracellular receptor 1 (Homo sapiens, UniProt Q99720). Kind of experiment: PDSP Secondary Binding target: SIGMAR1 - Compounds are tested at 10 uM concentration, plate are incubated at room temperature in the dark for 90 minutes. Reaction are stopped by vacuum filtration onto 0.3% polyethyleneimine soaked filter mats using Filtermate harvester. Scintillation cocktail is then melted onto microwave-dried filters on a hot plate and the radio activity is counted in Microbia counter.
Sequence of Sigma non-opioid intracellular receptor 1 (Q99720 whole entry): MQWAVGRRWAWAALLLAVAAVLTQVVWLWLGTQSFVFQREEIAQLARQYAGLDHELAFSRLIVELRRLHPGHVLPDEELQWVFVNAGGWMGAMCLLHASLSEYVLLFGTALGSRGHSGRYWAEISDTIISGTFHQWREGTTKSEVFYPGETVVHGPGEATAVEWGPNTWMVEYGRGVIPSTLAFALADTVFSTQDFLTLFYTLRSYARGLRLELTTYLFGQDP

Experiment [7] addresses 5-hydroxytryptamine receptor 2B (Homo sapiens, UniProt P41595). Kind of experiment: PDSP Secondary Binding target: HTR2B - Compounds are tested at 10 uM concentration, plate are incubated at room temperature in the dark for 90 minutes. Reaction are stopped by vacuum filtration onto 0.3% polyethyleneimine soaked filter mats using Filtermate harvester. Scintillation cocktail is then melted onto microwave-dried filters on a hot plate and the radio activity is counted in Microbia counter.

Where a name gives a salt, the structure may show the parent alone.

Sequence of 5-hydroxytryptamine receptor 2B (P41595 whole entry): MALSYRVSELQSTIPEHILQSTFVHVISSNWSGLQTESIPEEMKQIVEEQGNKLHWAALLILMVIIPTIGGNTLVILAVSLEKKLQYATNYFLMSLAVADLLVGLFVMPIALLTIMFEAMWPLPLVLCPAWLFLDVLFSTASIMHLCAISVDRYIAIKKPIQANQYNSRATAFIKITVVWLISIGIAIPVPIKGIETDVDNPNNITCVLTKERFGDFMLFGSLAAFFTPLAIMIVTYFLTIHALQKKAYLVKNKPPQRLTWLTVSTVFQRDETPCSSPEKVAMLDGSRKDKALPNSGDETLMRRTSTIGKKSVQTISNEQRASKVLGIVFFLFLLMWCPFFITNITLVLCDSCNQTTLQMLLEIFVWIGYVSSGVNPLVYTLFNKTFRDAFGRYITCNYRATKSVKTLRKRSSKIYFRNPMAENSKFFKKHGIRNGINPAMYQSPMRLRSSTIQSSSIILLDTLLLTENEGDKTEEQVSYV
Sequence of D(2) dopamine receptor (P14416 whole entry): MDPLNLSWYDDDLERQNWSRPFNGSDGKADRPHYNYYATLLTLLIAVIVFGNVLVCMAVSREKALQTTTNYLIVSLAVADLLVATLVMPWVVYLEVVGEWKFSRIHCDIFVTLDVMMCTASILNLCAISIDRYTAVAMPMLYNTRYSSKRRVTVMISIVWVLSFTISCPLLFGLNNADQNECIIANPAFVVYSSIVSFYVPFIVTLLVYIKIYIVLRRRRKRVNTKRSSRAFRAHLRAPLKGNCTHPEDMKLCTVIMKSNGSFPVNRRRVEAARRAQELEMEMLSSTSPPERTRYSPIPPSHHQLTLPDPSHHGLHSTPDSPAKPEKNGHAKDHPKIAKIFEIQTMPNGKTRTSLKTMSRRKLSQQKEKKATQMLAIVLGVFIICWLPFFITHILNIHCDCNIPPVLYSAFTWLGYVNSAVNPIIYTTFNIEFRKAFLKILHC
Sequence of D(3) dopamine receptor (P35462 whole entry): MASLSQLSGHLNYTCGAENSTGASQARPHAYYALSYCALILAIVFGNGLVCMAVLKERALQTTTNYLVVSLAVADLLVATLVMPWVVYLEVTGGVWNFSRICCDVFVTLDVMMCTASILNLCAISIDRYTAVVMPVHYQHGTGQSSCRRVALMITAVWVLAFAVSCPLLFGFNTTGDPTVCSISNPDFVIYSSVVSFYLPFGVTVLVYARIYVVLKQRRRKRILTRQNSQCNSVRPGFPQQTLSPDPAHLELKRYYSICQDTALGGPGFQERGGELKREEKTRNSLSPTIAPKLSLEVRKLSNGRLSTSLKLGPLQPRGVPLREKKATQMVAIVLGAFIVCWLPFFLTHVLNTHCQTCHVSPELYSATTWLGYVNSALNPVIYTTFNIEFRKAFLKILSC
Sequence of 5-hydroxytryptamine receptor 1B (P28222 whole entry): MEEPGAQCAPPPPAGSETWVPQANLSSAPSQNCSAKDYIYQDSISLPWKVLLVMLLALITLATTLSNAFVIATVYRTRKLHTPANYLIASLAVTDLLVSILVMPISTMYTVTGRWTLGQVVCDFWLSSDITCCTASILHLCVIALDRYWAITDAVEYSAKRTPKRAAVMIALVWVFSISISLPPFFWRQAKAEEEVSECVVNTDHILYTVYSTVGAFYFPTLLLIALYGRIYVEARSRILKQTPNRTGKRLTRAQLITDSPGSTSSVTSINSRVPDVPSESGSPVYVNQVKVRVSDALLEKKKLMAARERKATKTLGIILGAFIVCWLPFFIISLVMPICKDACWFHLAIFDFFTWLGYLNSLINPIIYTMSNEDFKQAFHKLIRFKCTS

The Ki is a dissociation constant, usually derived from enzyme kinetics or from competition with a known ligand. Low values mean tighter binding, high ones weaker binding. Turning to `S=C(NCCCc1c[nH]cn1)NCCCN(Cc1ccc(Cl)c(Cl)c1)c1ccc(Br)cn1`, the Ki turned out to be 1700 nM in [1]; 153 nM in [2]; 1330 nM in experiment [3]; 649 nM on Histamine H1 receptor; 641 nM on D(3) dopamine receptor; 513 nM in experiment [4]. Further, the affinity in [5] corresponds to a Ki of 1040 nM.

In the case of `Cc1ccc2c(c1)c1c(n2CCc2ccc(C)nc2)CCN(C)C1` [LATREPIRDINE], the inhibition constant Ki on D(2) dopamine receptor came to 1550 nM; in experiment [1] it was 767 nM; in [6] it was 1310 nM; in experiment [3], 144 nM; at D(3) dopamine receptor it was 461 nM; in [4] it was 414 nM. In experiment [7], the affinity, expressed as Ki, was 603 nM.

With `N#Cc1ccc2[nH]cc(CCCCN3CCN(c4ccc5oc(C(N)=O)cc5c4)CC3)c2c1` [VILAZODONE HYDROCHLORIDE], the Ki was 553 nM at D(2) dopamine receptor; 716 nM in experiment [1]; 14.2 nM in [6]; 1090 nM in experiment [2]; 960 nM in [3]; 364 nM on Histamine H1 receptor. In addition, the Ki on D(3) dopamine receptor turned out to be 133 nM; in experiment [4] it was 278 nM; in experiment [7] it was 65 nM; in [5], 1240 nM.

On to `C[C@H](Cc1cc2c(c(C(N)=O)c1)N(CCCO)CC2)NCCOc1ccccc1OCC(F)(F)F` [SILODOSIN], for which the inhibitory constant (Ki) was 989 nM at D(2) dopamine receptor; 47.3 nM in experiment [1]; 3530 nM at Histamine H1 receptor; 71.6 nM on D(3) dopamine receptor; 30.3 nM in experiment [4]; 2090 nM in experiment [7]. Moreover, in experiment [5], the inhibitory constant (Ki) is 373 nM.

In the case of `Cc1nc2sccn2c(=O)c1CCN1CCC(=C(c2ccc(F)cc2)c2ccc(F)cc2)CC1` [RITANSERIN], the Ki on D(2) dopamine receptor is 184 nM; in experiment [6], 426 nM; in [2], 339 nM; in experiment [3] it was 287 nM; on Histamine H1 receptor, 12.2 nM; at D(3) dopamine receptor, 35.5 nM. The inhibition constant (Ki) was found to be 172 nM in [4] and 281 nM in experiment [5].

`CCCCCNC(=N)N/N=C/c1c[nH]c2ccc(OC)cc12` [TEGASEROD MALEATE]: the inhibition constant (Ki) at D(2) dopamine receptor worked out at 297 nM; in experiment [1], 1640 nM; in experiment [6], 177 nM; in experiment [2], 57.2 nM; in experiment [3] it was 566 nM; at D(3) dopamine receptor, 426 nM. Besides, the inhibitory constant (Ki) in experiment [4] came out at 1630 nM; in [7], 15.6 nM.

Take `CN1CCCC(n2nc(Cc3ccc(Cl)cc3)c3ccccc3c2=O)CC1` (stereo not drawn) [AZELASTINE HYDROCHLORIDE]: the Ki is 1180 nM on D(2) dopamine receptor; 333 nM in experiment [1]; 150 nM in experiment [6]; 32 nM in experiment [2]; 2090 nM in experiment [3]; 636 nM on D(3) dopamine receptor. Also, the Ki in [4] amounted to 496 nM; in experiment [5] it was 4230 nM.

For the molecule `CN1C[C@H](C(=O)N[C@]2(C)O[C@@]3(O)[C@@H]4CCCN4C(=O)[C@H](Cc4ccccc4)N3C2=O)C[C@@H]2c3cccc4[nH]cc(c34)C[C@H]21` [DIHYDROERGOTAMINE MESYLATE], the inhibition constant Ki turned out to be 60.9 nM on D(2) dopamine receptor; 604 nM in experiment [6]; 2840 nM in experiment [2]; 225 nM in [3]; 34 nM on D(3) dopamine receptor; 32.9 nM in [4]. Also, the Ki in [5] was 108 nM.

In the case of `O=c1ccc2ccc(OCCCCN3CCN(c4cccc5sccc45)CC3)cc2[nH]1` [BREXPIPRAZOLE], the inhibition constant Ki at D(2) dopamine receptor was 5.99 nM; in [1], 76.4 nM; in experiment [2], 63 nM; in experiment [3] it was 308 nM; on Histamine H1 receptor, 8.88 nM; on D(3) dopamine receptor it was 10.4 nM. The Ki turned out to be 29.3 nM in experiment [4] and 42.6 nM in experiment [5].

For the molecule `CCc1nn(CCCN2CCN(c3cccc(Cl)c3)CC2)c(=O)n1CCOc1ccccc1` [NEFAZODONE HYDROCHLORIDE], the Ki at D(2) dopamine receptor worked out at 736 nM; in experiment [1], 445 nM; in experiment [2] it was 222 nM; in [3] it was 1110 nM; on Histamine H1 receptor it was 125 nM; on D(3) dopamine receptor, 380 nM. The inhibition constant Ki in [4] turned out to be 137 nM; in [5], 262 nM.
